Test results published in patent US9062061B2, “Compound having PARP inhibitory activity” (SANTEN PHARMACEUTICAL CO., LTD., priority 2011, dated 2015).
Like-named read-outs stand apart in the source and are kept apart here.

Experiments:
[1] = biological target: T1, human recombinant PARP1 (Homo sapiens, UniProt P09874); test: PARP inhibitory activity measurement test (Universal Colorimetric PARP Assay kit, Trevigen); assay type: biochemical; conditions: compound concentration: 10 μM, read-out: PARP1 inhibition rate (%)
T1 construct: purchased Trevigen 4677-096-K
Method in brief: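 Histone-coated wells with recombinant PARP1, activated DNA and biotinylated NAD, with test compound from a 50 μM solution, 1 h at room temperature. Incorporated biotin detected with Strep-HRP and colorimetric substrate at Abs 450. Inhibition (%) calculated against no-compound and no-enzyme controls, n=1–2.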

[2] = system: rat N-methyl-N-nitrosourea (MNU)-induced retinal degeneration model; test: Retinal degeneration inhibitory activity in rat MNU-induced model (retinal volume by OCT); assay type: in vivo; conditions: po, 168 h, test compound 10 mg/kg orally once 30 minutes before MNU, seventh day, Brown Norway male rats, read-out: Retinal volume reduction inhibition rate (%)
Protocol: For examining influence of the present compound on the retinal degeneration, retinal degeneration inhibitory activity of test compound was evaluated, using a rat N-methyl-N-nitrosourea (hereinafter, “MNU”)-induced retinal degeneration model. The rat MNU-induced retinal degeneration model is a model animal in which cell death of retinal photoreceptor cell is induced by administration of MNU which is a DNA alkylation agent, and is generally used as a model animal for chorioretinal degenerative diseases such as retinitis pigmentosa (Exp. Eye. Res., 84(2), 285-292 (2007)).
By the previous day of MNU administration, retinal volumes of 8-week-old Brown Norway male rats were measured by using optical coherence tomography (OCT) (product of Carl Zeiss, model number: STRATUS OCT Model 3000). An MNU administration liquid was intraperitoneally administered to the rats at a dose of 50 to 60 mg/kg, and on the seventh day after administration, retinal volumes were measured by using OCT. The normal control group underwent no treatment, and retinal volumes were measured on the same day as the MNU administration group. The number of examples in each group was 4 rats (8 eyes).
(Administration Method) • Test compound-administered group: A solution of each test compound suspended in 1% (w/v) methylcellulose aqueous solution was orally administered once 30 minutes before MNU administration at a dose of 1 to 30 mg/kg. • Normal control group and vehicle-administered group: 1% (w/v) methylcellulose aqueous solution was orally administered once 30 minutes before MNU administration.
According to the following Formula 2, retinal volume reduction inhibition rate (%) was calculated. Retinal volume reduction inhibition rate(%)=(RVX-pre/RVX-post−RVB-pre/RVB-post)/(RVA-pre/RVA-post−RVB-pre/RVB-post)×100 [Formula 2]
RVA-pre: retinal volume before MNU administration of normal control group (mm^3)
RVA-post: retinal volume on the seventh day after MNU administration of normal control group (mm^3)
RVB-pre: retinal volume before MNU administration of vehicle-administered group (mm^3)
RVB-post: retinal volume on the seventh day after MNU administration of vehicle-administered group (mm^3)
RVX-pre: retinal volume before MNU administration of test compound-administered group (mm^3)
RVX-post: retinal volume on the seventh day after MNU administration of test compound-administered group (mm^3)

[3] = system: rat thrombin-induced retinal vascular hyperpermeability model; test: Retinal vascular hyperpermeability inhibitory activity in rat thrombin model (intravitreal protein concentration, Bradford method); assay type: in vivo; conditions: thrombin 3 U/eye intravitreal; test compound 100 mg/kg orally 1.5 hours before and 22.5 hours after thrombin; Brown Norway male rats
Protocol: For examining the influence of the present compound on retinal vascular hyperpermeability, the retinal vascular hyperpermeability inhibitory activity of the test compound was evaluated using a rat thrombin-induced retinal vascular hyperpermeability model. The rat thrombin-induced retinal vascular hyperpermeability model is an animal in which retinal vascular permeability is increased by administration of thrombin, and is used as a model animal for diabetic retinopathy, diabetic macular edema and so on (IONS, 2000, 41(4), S18, 92).
A thrombin liquid preparation was intravitreally administered to 8-week old Brown Norway male rat at a dose of 3 U/eye, and the vitreous body was collected on the next day of administration, and intravitreal protein concentration was measured by the Bradford method. A normal control group received intravitreal administration of DPBS. The number of examples in each group was 4 rats (7-8 eyes).
(Administration Method) • Test compound-administered group: A solution of each test compound suspended in 1% (w/v) methylcellulose aqueous solution was orally administered in a dose of 100 mg/kg, 1.5 hours before and 22.5 hours after thrombin administration. • Normal control group and vehicle-administered group
According to the following Formula 3, retinal vascular hyperpermeability inhibition rate was calculated. […]

T1 sequence (P09874 whole entry): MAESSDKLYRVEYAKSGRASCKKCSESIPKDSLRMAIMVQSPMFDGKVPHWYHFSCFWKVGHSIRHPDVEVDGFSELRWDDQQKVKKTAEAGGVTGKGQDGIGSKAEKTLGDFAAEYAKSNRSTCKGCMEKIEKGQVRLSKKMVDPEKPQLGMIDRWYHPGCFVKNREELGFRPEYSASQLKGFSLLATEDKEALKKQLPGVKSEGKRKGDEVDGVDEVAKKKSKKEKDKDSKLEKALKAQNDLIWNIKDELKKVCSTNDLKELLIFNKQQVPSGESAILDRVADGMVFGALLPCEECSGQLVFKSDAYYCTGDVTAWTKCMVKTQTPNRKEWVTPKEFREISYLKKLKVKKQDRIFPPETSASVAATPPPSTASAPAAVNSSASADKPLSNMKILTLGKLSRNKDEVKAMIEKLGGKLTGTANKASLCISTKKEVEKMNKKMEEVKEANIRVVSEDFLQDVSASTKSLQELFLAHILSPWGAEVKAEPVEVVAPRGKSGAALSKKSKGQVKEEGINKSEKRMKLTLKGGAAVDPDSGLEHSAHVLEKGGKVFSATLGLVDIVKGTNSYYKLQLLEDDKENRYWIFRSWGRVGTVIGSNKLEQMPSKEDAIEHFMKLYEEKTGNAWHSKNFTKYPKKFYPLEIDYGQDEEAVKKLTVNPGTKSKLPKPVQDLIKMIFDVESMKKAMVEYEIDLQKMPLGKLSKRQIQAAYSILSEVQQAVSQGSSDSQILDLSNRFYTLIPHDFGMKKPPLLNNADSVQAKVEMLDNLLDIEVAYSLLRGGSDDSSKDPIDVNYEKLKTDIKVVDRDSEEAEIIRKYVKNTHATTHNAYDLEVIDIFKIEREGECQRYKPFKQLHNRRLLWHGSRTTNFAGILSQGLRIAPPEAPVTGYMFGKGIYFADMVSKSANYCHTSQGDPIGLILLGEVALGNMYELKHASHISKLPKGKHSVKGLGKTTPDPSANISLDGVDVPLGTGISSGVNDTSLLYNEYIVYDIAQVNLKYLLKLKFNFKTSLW

O=c1[nH]c2cc(CN3CCN(c4ccc(F)cc4)CC3)cn2c2ccccc12 [Compound 2-1, 2-[4-(4-Fluorophenyl)piperazin-1-ylmethyl]pyrrolo[1,2-a]quinazolin-5 (4H)-one]
inhibition at 10 µM [1]: 100%
inhibition in vivo at 10 mg/kg ([2]; MNU 60 mg/kg i.p.): 65%
Retinal vascular hyperpermeability inhibition rate (%) [3]: 63%

[2H]C([2H])(c1cc2[nH]c(=O)c3ccccc3n2c1)N1CCN(c2ccc(F)cc2)CC1 [Compound 4-1, 2-[1-[4-(4-Fluorophenyl)piperazin-1-yl]-1,1-dideuteriomethyl]pyrrolo[1,2-a]quinazolin-5(4H)-one]
inhibition at 10 µM [1]: 100%
inhibition in vivo at 10 mg/kg ([2]; MNU 50 mg/kg i.p.): 94%
